Source: patent US6365616B1, “Methimazole derivatives and tautomeric cyclic thiones to treat autoimmune diseases” (Sentron Medical, Inc., priority 1998, dated 2002)
Where two headings read alike, the source gives them in different places.

Assays:
[1] = system: Y box protein (TSEP-1) RNA; assay: Northern analysis of Y box protein (TSEP-1) RNA levels in FRTL-5 cells; type: cell-based, rat; details: 40 hours
From the text: Whereas γ-IFN decreases Y box protein RNA levels in FRTL-5 cells, MMI can reverse this action (FIG. 16). […] The rat TSEP-1 probe was the clone 31 insert, residues 5 to 1395 of the rat TSEP-1 nucleotide sequence reported (Ohmori, M., et al., ibid (1996)); rat β-actin was kindly provided by Dr. B. Paterson (NCI, Bethesda, Md.). Radiolabeling of all probes, hybridization (0.5-1.0×10^6cpm/ml), and washing were as described (Isozaki, O., et al., ibid (1989); Saji, M., et al., ibid (1992); Ohmori, M., et al., ibid (1996)).
The ability of the compounds to reverse the γ-IFN-induced decrease in TSEP-1 RNA levels is once again 10>11>7 or 8>2>MMI>3. This mimics data in all other assays.

[2] = system: HLA-DRα class II promoter; assay: Transient transfection CAT assay, HLA-DRα class II promoter chimeras in FRTL-5 cells; type: cell-based
From the text: Construction of the HLA-DR promoter constructs has also been described as have been their characteristics (Reimold A M, et al., ibid (1993)). Additional CAT constructs were constructed by PCR, using the HLA-DRα-CAT chimera containing −176 to +45 of 5′-flanking region as template and various primers (Montani V. et al., ibid (1998a,b)). For example, a plasmid containing −38 to +45 bp of the 5′-flanking region of HLA-DRα was constructed with the following primers: a 5′ primer with a 5′ Sph I restriction site, 5′-[…]-3′ and a 3′ primer, 5′-[…]-3′, with an Xba I restriction site (Montani V., et al., ibid (1998a,b)). The PCR products were purified by phenol-chloroform extraction, digested with Xba I and Sph I, purified from a 2% agarose gel with Jet Sorb (Genomed, Frederick, Md.), dephosphorylated with calf intestinal alkaline phosphatase (New England Biolabs, Beverly, Mass.), and religated (DNA ligation kit, Takara Biochemical, Inc., Berkeley, Calif.) into the pCAT-Basic Vector (Promega, Madison, Wis.) at the Sph I and Xba I sites as described (Reimold AM, et al., ibid (1993); Montani V., et al., ibid (1998a,b)).
To measure the promoter activity of MHC class II promoter constructs, transient transfections in FRTL-5 cells were performed, using one of the following procedures (Montani V., et al., ibid (1998a, b)). In one, FRTL-5 cells were cultivated in 6H medium to approximately 80% confluency, harvested, washed, and resuspended (1.5×10^7 cells/ml) in 0.85 ml electroporation buffer (272 mM sucrose, 7 mM sodium phosphate buffer pH 7.4, and 1 mM MgCl2). Plasmid DNA was added, 20 μg of the CAT chimera together with 2 μg pRSV-luciferase which is used to measure the efficiency of transfection. Cells were pulsed (330 V; capacitance 25 μfarad), plated (6×10^6 cells/10 cm dish), and cultured in 6H medium plus 5% calf serum supplemented or not with γ-IFN. At the times noted, cells were harvested for CAT and luciferase assays. The second procedure differed as follows. FRTL-5 cells were grown to 80% confluency in 6H medium, then maintained 6 days in 5H medium plus 5% calf serum. Cells were returned to 6H medium for 12 hours, transfected as described above, and maintained in 6H medium plus 5% calf serum for twelve hours. The medium was then changed to fresh 5H medium with 5% calf serum supplemented or not with γ-IFN. […] CAT activity was measured as described above and values were normalized to luciferase activity measured using the Promega (Madison, Wis.) assay system.
To test the effect of MMI, MMI derivatives or tautomeric cyclic thiones on γ-IFN-increased class II expression in FRTL-5 thyroid cells, the following procedure was used. Transient transfections with the −137 bp or −176 bp DRα-CAT chimeras were performed as described and treated with 100 U/ml γ-IFN for the noted times starting 12 hours after transfection. […]
In this experiment, like previous experiments, transient transfections were performed in FRTL-5 cells grown to 80% confluency in 6H medium, maintained 6 days in SH medium, and returned to 6H medium for 12 h before transfection as described. Twelve hours later, the medium was changed to fresh 5H medium, supplemented or not with 100 U/ml γ-IFN and/or 5 mM MMI. CAT activity was measured 48 h thereafter. […] Results are the mean ±SD of 3 separate experiments.

[3] = system: MHC class II antigen expression; assay: Flow cytometry of IFN-increased class II antigen expression in FRTL-5 cells; type: cell-based, rat; details: for Concentration to inhibit IFN-increased antigen expression, Class II: 100 U/ml γ-interferon, 6H medium (TSH), 40 hours
Experimental: […] 13 and 14. Cells were stained with a fluorescein isothiocyanate conjugated class II-specific monoclonal antibody to RT1.B (clone OX-6, Sera Labs, UK) for 60 min at 4° C., washed twice with Dulbecco's phosphate buffered saline, and subjected to laser flow cytometry.
(§1) In this experiment 10^6 cells were incubated with MHC class II or MHC class I-specific antibodies as described (Montani, V., et al., ibid (1998b); Saji, M., et al., ibid (1992a); Balducci-Silano, P. L., et al., Endocrinology 139:2309-2313 (1998)). After 30 min on ice, cells were washed with phosphate buffered saline at pH 7.4 and incubated for 30 min with fluorescein-isothiocyanate (FITC)-conjugated antibodies then analyzed by flow cytometry on a FACScan Cytometer using CellQuest software (Becton Dickinson).
(§2) The concentration needed to achieve suppression of the interferon induced class I or class II surface expression was determined by testing different concentrations of the compounds (Table 18). Like all other assays, the order of effectiveness was compound 10>11>7 or 8>2>MMI>3.

[4] = system: MHC class I antigen expression; assay: Flow cytometry of IFN-increased class I antigen expression in FRTL-5 cells; type: cell-based, rat; details: 100 U/ml γ-interferon, 6H medium (TSH), 40 hours
Experimental: as §1, §2

[5] = FRTL-5, 10 μM, 100 U/ml γ-interferon, 6H medium, read-out: % inhibition of IFN-increased p(−137)CAT class II promoter activity
[6] = FRTL-5, 100 μM, 100 U/ml γ-interferon, 6H medium, read-out: % inhibition of IFN-increased p(−137)CAT class II promoter activity
[7] = FRTL-5, 0.5 mM, 100 U/ml γ-interferon, 6H medium, read-out: % inhibition of IFN-increased p(−137)CAT class II promoter activity
[8] = FRTL-5, 5 mM, 100 U/ml γ-interferon, 6H medium, read-out: % inhibition of IFN-increased p(−137)CAT class II promoter activity
[9] = 10 μM, 100 U/ml γ-interferon, 6H medium
[10] = 100 μM, 100 U/ml γ-interferon, 6H medium
[11] = 0.5 mM, 100 U/ml γ-interferon, 6H medium
[12] = 5 mM, 100 U/ml γ-interferon, 6H medium
[13] = FRTL-5, read-out: % inhibition of IFN-increased p(−137)CAT class II promoter activity

Molecule | Y box protein (TSEP-1) RNA level, compound +γIFN ([1]; 100 μM compound + γIFN) | Y box protein (TSEP-1) RNA level, compound ALONE ([1]; 100 μM compound alone) | Y box protein (TSEP-1) RNA level, compound +γIFN ([1]; 1 mM compound + γIFN) | Y box protein (TSEP-1) RNA level, compound ALONE ([1]; 1 mM compound alone) | Y box protein (TSEP-1) RNA level, compound +γIFN ([1]; 5 mM compound + γIFN) | Y box protein (TSEP-1) RNA level, compound ALONE ([1]; 5 mM compound alone) | inhibition at 10 µM [2, 5] | inhibition at 100 µM [2, 6] | inhibition at 500 µM [2, 7] | inhibition at 5000 µM [2, 8] | Concentration to inhibit IFN-increased antigen expression, Class II [3] | Concentration to inhibit IFN-increased antigen expression, Class I [4] | further results
Cn1ccnc1S [Compound 1, 1-Methylimidazole-2-thiol] | 42 ± 7% | 105 ± 8% | 87 ± 7% | 104 ± 12% | 149 ± 12% | 115 ± 9% | 0% | 0% | 44 ± 6% | 87 ± 9% | 5 mM | 5 mM | endogenous class II antigen expression on the cell surface (flow cytometry, FIG. 12) ([3]; 5 mM MMI with 100 U/ml γ-IFN, 48 hours): decreased endogenous class II antigen expression
Cc1ncc([N+](=O)[O-])n1CCO [Compound 2, 2-Methyl-5-nitro-1-imidazole ethanol] | 43 ± 6% | 104 ± 4% | 126 ± 9% | 106 ± 11% | 163 ± 15% | 112 ± 4% | 0% | 0% | 55 ± 10% | 80 ± 4% | 1.5 ± 1.0 mM | 0.5 ± 1.4 mM | –
Sc1ncc[nH]1 [Compound 3, 2-Mercaptoimidazole] | 42 ± 11% | 102 ± 7% | 42 ± 5% | 94 ± 6% | 47 ± 4% | 100 ± 8% | – | – | – | – | No Inhibition | No Inhibition | % inhibition of IFN-increased p(−137)CAT class II promoter activity [2, 9]: None; % inhibition of IFN-increased p(−137)CAT class II promoter activity [2, 10]: None; % inhibition of IFN-increased p(−137)CAT class II promoter activity [2, 11]: None; % inhibition of IFN-increased p(−137)CAT class II promoter activity [2, 12]: None
Sc1nc2ccccc2[nH]1 [Compound 4, 2-Mercaptobenzimidazole] | – | – | – | – | – | – | – | – | – | – | – | – | inhibition at 10 µM [2, 13]: 0%; inhibition at 100 µM [2, 13]: 0%; inhibition at 500 µM [2, 13]: 29 ± 12%; inhibition at 5000 µM [2, 13]: 73 ± 14%
O=[N+]([O-])c1ccc2[nH]c(S)nc2c1 [Compound 5, 2-Mercapto-5-nitrobenzimidazole] | – | – | – | – | – | – | – | – | – | 39 ± 13% | – | – | –
Cc1ccc2[nH]c(S)nc2c1 [Compound 6, 2-Mercapto-5-methylbenzimidazole] | – | – | – | – | – | – | – | – | – | 44 ± 8% | – | – | –
CSc1nccn1C [Compound 7, S-Methylmethimazole] | 83 ± 10% | 111 ± 16% | 133 ± 15% | 108 ± 4% | – | – | 0% | 20 ± 15% | 75 ± 6% | 84 ± 15% | 0.405 ± 0.015 mM | 0.424 ± 0.031 mM | –
Cn1ccn(C)c1=S [Compound 8, N-Methylmethimazole] | 77 ± 6% | 119 ± 13% | 148 ± 12% | 115 ± 5% | – | – | – | – | – | – | 0.439 ± 0.093 mM | 0.356 ± 0.07 mM | % inhibition of IFN-increased p(−137)CAT class II promoter activity [2, 9]: 0%; % inhibition of IFN-increased p(−137)CAT class II promoter activity [2, 10]: 43 ± 9%; % inhibition of IFN-increased p(−137)CAT class II promoter activity [2, 11]: 79 ± 11%; % inhibition of IFN-increased p(−137)CAT class II promoter activity [2, 12]: 88 ± 10%
Cc1cnc(S)n1C [Compound 9, 5-Methylmethimazole] | – | – | – | – | – | – | 0% | 0% | 14 ± 12% | 44 ± 18% | – | – | –
γ-IFN: rat recombinant γ-interferon, 100 U/ml, used to increase MHC class I and class II expression in FRTL-5 cells (protein, UniProt P01581 23-156, looked up) Interferon gamma: QGTLIESLESLKNYFNSSSMDAMEGKSLLLDIWRNWQKDGNTKILESQIISFYLRLFEVLKDNQAISNNISVIESHLITNFFSNSKAKKDAFMSIAKFEVNNPQIQHKAVNELIRVIHQLSPESSLRKRKRSRC | – | – | – | – | – | – | – | – | – | – | – | – | Y box protein (TSEP-1) RNA level +γIFN, % Control ([1]; γ-IFN alone, 100 Units/ml): 45 ± 6%
